Source: the kinase profiling compilation of Christmann-Franck et al. (2016)
One block for each molecule: values may come before it.

Experiments:
Assay in all cases: radiometric filter-binding kinase assay
[1] = tested on: AKT2 (human), P31751 [S474D]
[2] = biological target: AURKB (human) (UniProt Q96GD4)
[3] = biological target: CAMKK2 (human) (UniProt Q96RR4)
[4] = biological target: CDK2 CCNA2 (human) (UniProt P20248+P24941)
[5] = biological target: CHEK1 (human) (UniProt O14757)
[6] = biological target: CSNK2A1 (human) (UniProt P68400)
[7] = biological target: CaMK1 (human) (UniProt Q14012)
[8] = biological target: DYRK1A (human) (UniProt Q13627)
[9] = biological target: EPHB3 (human) (UniProt P54753)
[10] = biological target: IGF1R (human) (UniProt P08069)
[11] = biological target: INSR (human) (UniProt P06213)
INSR (human), sequence (P06213 whole entry, looked up): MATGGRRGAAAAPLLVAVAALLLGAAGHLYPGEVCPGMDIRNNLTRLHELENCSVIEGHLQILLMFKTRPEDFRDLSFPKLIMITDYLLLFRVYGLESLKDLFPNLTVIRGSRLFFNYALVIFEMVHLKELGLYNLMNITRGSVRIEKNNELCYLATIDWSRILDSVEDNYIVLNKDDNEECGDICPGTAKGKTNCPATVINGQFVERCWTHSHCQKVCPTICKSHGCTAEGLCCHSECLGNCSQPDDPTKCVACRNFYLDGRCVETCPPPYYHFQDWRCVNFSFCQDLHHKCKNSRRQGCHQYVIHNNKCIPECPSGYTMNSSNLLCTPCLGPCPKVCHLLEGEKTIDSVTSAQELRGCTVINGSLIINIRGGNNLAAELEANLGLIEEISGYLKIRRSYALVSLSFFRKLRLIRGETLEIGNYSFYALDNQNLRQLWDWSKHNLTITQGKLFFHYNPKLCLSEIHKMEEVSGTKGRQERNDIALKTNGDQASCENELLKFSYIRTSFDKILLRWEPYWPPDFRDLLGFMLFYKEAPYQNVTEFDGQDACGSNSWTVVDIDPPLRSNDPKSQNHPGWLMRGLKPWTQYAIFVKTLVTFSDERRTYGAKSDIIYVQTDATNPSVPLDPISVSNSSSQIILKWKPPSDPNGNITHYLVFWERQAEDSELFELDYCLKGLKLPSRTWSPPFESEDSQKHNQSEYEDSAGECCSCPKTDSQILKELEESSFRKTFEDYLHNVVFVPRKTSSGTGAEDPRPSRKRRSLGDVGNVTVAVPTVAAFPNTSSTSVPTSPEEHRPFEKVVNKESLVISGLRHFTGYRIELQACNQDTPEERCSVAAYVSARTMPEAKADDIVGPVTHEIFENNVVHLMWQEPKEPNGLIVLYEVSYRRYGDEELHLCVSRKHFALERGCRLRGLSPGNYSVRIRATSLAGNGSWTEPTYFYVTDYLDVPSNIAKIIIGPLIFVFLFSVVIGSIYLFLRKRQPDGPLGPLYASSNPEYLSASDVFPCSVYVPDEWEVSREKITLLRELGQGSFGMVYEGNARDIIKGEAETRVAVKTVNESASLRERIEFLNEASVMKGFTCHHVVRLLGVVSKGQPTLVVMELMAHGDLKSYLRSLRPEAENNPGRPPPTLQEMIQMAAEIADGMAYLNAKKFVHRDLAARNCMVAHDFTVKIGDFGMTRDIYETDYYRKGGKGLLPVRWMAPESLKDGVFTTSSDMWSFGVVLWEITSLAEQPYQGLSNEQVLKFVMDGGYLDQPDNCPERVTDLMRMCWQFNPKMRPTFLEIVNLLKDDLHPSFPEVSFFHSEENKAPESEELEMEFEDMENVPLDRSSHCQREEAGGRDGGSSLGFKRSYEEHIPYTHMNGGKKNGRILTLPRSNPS

[12] = biological target: INSRR (human) (UniProt P14616)
[13] = biological target: JAK2 JH1 JH2 (human) (UniProt O60674)
[14] = tested on: LCK (mouse); conditions: accession and sequence are those of the human protein
[15] = biological target: MAP2K1 (human) (UniProt Q02750)
MAP2K1 (human), sequence (Q02750 whole entry, looked up): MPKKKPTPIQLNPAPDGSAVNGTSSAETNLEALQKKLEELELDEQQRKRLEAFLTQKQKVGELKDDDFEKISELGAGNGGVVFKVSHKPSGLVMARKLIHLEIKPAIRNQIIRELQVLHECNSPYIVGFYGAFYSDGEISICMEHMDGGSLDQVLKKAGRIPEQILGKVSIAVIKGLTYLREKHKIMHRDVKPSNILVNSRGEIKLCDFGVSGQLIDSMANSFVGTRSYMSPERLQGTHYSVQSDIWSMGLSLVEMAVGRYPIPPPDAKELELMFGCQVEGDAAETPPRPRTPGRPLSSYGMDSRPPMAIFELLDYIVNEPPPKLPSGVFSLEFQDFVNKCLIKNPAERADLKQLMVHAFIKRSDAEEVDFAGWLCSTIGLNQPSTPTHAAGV

[16] = biological target: MAP3K11 (human) (UniProt Q16584)
[17] = biological target: MAP3K9 (human) (UniProt P80192)
[18] = biological target: MAPK10 (human) (UniProt P53779)
[19] = biological target: MAPK13 (human) (UniProt O15264)
MAPK13 (human), sequence (O15264 whole entry, looked up): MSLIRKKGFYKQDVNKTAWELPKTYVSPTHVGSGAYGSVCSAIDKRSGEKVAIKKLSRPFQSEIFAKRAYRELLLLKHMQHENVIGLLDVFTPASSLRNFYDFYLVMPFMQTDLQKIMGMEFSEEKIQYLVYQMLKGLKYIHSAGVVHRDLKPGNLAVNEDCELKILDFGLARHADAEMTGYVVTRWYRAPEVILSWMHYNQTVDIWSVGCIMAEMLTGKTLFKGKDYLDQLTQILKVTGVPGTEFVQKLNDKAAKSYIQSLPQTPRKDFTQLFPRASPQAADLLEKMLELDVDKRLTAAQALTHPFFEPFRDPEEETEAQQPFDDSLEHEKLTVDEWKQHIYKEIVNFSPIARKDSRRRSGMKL

[20] = biological target: MARK3 (human) (UniProt P27448)
MARK3 (human), sequence (P27448 whole entry, looked up): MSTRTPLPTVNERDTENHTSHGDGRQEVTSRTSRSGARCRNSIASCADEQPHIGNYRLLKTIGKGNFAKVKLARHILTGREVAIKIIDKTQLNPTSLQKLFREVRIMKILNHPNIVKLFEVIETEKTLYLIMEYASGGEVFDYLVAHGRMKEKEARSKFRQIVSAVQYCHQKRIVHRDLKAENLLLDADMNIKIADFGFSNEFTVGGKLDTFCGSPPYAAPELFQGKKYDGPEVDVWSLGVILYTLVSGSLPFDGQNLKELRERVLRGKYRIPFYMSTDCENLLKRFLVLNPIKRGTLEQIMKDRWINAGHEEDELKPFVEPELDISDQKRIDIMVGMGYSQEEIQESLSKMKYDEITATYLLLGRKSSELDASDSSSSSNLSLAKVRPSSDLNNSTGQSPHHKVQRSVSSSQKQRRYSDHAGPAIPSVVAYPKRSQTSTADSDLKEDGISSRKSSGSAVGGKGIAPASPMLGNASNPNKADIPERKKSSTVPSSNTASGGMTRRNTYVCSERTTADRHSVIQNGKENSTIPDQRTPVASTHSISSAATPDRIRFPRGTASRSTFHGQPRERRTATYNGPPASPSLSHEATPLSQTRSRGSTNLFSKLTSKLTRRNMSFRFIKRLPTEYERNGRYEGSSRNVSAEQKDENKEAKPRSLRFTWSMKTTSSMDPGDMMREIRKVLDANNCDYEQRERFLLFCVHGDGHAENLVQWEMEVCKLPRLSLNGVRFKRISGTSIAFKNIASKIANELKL

[21] = biological target: MARK4 (human) (UniProt Q96L34)
[22] = biological target: MINK1 (human) (UniProt Q8N4C8)
[23] = biological target: MKNK1 (human) (UniProt Q9BUB5)
MKNK1 (human), sequence (Q9BUB5 whole entry, looked up): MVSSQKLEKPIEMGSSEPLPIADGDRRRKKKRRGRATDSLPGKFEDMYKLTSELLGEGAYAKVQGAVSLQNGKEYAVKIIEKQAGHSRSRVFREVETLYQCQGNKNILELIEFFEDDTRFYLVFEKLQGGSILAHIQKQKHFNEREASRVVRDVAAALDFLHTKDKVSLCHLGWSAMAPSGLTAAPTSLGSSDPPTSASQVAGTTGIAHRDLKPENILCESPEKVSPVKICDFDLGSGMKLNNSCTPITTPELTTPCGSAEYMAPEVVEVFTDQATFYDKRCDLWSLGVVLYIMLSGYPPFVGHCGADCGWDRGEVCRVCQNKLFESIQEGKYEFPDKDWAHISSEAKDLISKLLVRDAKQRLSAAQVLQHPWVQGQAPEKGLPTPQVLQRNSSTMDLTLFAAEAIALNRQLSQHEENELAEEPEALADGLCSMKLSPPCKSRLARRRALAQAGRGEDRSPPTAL

[24] = biological target: MST4 (human) (UniProt Q9P289)
MST4 (human), sequence (Q9P289 whole entry, looked up): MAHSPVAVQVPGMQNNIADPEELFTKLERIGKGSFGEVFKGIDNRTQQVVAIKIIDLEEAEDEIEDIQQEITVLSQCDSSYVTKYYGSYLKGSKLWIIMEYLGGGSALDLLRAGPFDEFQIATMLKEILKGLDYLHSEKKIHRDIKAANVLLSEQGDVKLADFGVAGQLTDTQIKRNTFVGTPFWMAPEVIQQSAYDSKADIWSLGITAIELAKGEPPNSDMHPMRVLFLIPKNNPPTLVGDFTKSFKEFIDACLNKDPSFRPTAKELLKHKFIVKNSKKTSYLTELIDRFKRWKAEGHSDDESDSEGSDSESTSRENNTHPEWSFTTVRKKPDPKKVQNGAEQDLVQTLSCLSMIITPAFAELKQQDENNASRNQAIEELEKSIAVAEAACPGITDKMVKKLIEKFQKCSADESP

[25] = biological target: NTRK1 (human) (UniProt P04629)
[26] = biological target: NUAK1 (human) (UniProt O60285)
[27] = biological target: PAK4 (human) (UniProt O96013)
[28] = biological target: PHKG1 (human) (UniProt Q16816)
[29] = biological target: PIM2 (human) (UniProt Q9P1W9)
[30] = tested on: PRKAA1 or PRKAA2 (rat); conditions: accession and sequence are those of the human protein
[31] = biological target: PRKACA (human) (UniProt P17612)
[32] = biological target: PRKCZ (human) (UniProt Q05513)
PRKCZ (human), sequence (Q05513 whole entry, looked up): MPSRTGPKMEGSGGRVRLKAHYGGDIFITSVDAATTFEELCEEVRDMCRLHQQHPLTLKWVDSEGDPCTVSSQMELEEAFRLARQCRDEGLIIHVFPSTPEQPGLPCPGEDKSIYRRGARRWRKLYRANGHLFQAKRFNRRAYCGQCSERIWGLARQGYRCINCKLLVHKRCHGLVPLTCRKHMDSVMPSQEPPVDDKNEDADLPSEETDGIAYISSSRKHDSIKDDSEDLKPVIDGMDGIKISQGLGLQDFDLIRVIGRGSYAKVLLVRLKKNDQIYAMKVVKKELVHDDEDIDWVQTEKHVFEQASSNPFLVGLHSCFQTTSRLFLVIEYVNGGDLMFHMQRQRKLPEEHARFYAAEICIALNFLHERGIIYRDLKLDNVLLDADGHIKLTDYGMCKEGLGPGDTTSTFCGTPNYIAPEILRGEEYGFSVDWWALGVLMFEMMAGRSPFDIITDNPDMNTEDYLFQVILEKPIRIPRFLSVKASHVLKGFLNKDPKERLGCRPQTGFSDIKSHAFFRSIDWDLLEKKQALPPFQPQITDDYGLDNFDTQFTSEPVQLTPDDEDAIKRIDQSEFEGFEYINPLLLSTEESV

[33] = biological target: RIPK2 (human) (UniProt O43353)
RIPK2 (human), sequence (O43353 whole entry, looked up): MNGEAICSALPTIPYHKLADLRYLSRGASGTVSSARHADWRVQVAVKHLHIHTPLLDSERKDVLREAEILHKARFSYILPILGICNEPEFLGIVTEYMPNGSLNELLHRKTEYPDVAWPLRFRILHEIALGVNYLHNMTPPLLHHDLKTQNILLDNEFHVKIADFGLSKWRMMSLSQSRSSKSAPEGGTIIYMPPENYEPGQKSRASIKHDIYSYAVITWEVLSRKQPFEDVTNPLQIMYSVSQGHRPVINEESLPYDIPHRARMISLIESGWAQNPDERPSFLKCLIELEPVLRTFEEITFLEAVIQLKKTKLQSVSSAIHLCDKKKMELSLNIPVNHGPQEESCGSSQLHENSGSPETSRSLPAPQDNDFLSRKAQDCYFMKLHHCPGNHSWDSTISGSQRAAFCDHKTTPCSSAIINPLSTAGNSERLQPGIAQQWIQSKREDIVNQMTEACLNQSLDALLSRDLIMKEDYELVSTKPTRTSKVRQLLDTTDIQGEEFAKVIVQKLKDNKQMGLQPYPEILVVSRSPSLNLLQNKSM

[34] = biological target: SRC (human) (UniProt P12931)
[35] = biological target: SYK (human) (UniProt P43405)
[36] = biological target: YES1 (human) (UniProt P07947)

residual activity ([1]; compound 0.1 µM): 108%
residual activity ([1]; compound 1.0 µM): 96%
residual activity ([2]; compound 0.1 µM): 98%
residual activity ([2]; compound 1.0 µM): 102%
residual activity ([3]; compound 0.1 µM): 100%
residual activity ([3]; compound 1.0 µM): 104%
residual activity ([4]; compound 0.1 µM): 93%
residual activity ([4]; compound 1.0 µM): 102%
residual activity ([5]; compound 0.1 µM): 107%
residual activity ([5]; compound 1.0 µM): 105%
residual activity ([6]; compound 0.1 µM): 102%
residual activity ([6]; compound 1.0 µM): 104%
residual activity ([7]; compound 0.1 µM): 103%
residual activity ([7]; compound 1.0 µM): 107%
residual activity ([8]; compound 0.1 µM): 109%
residual activity ([8]; compound 1.0 µM): 104%
residual activity ([9]; compound 0.1 µM): 112%
residual activity ([9]; compound 1.0 µM): 104%
residual activity ([10]; compound 0.1 µM): 97%
residual activity ([10]; compound 1.0 µM): 103%
residual activity ([11]; compound 0.1 µM): 108%
residual activity ([11]; compound 1.0 µM): 94%
residual activity ([12]; compound 0.1 µM): 98%
residual activity ([12]; compound 1.0 µM): 103%
residual activity ([13]; compound 0.1 µM): 107%
residual activity ([13]; compound 1.0 µM): 93%
residual activity ([14]; compound 0.1 µM): 105%
residual activity ([14]; compound 1.0 µM): 62%
residual activity ([15]; compound 1.0 µM): 98%
residual activity ([16]; compound 0.1 µM): 104%
residual activity ([16]; compound 1.0 µM): 107%
residual activity ([17]; compound 0.1 µM): 96%
residual activity ([17]; compound 1.0 µM): 86%
residual activity ([18]; compound 0.1 µM): 119%
residual activity ([18]; compound 1.0 µM): 99%
residual activity ([19]; compound 1.0 µM): 94%
residual activity ([20]; compound 0.1 µM): 101%
residual activity ([20]; compound 1.0 µM): 98%
residual activity ([21]; compound 0.1 µM): 98%
residual activity ([21]; compound 1.0 µM): 87%
residual activity ([22]; compound 0.1 µM): 66%
residual activity ([22]; compound 1.0 µM): 13%
residual activity ([23]; compound 0.1 µM): 103%
residual activity ([23]; compound 1.0 µM): 93%
residual activity ([24]; compound 0.1 µM): 95%
residual activity ([24]; compound 1.0 µM): 99%
residual activity ([25]; compound 0.1 µM): 118%
residual activity ([25]; compound 1.0 µM): 99%
residual activity ([26]; compound 0.1 µM): 96%
residual activity ([26]; compound 1.0 µM): 84%
residual activity ([27]; compound 0.1 µM): 89%
residual activity ([27]; compound 1.0 µM): 93%
residual activity ([28]; compound 0.1 µM): 100%
residual activity ([28]; compound 1.0 µM): 112%
residual activity ([29]; compound 0.1 µM): 97%
residual activity ([29]; compound 1.0 µM): 94%
residual activity ([30]; compound 0.1 µM): 99%
residual activity ([30]; compound 1.0 µM): 82%
residual activity ([31]; compound 0.1 µM): 109%
residual activity ([31]; compound 1.0 µM): 99%
residual activity ([32]; compound 0.1 µM): 98%
residual activity ([32]; compound 1.0 µM): 100%
residual activity ([33]; compound 0.1 µM): 26%
residual activity ([33]; compound 1.0 µM): 9%
residual activity ([34]; compound 0.1 µM): 102%
residual activity ([34]; compound 1.0 µM): 75%
residual activity ([35]; compound 0.1 µM): 109%
residual activity ([35]; compound 1.0 µM): 106%
residual activity ([36]; compound 0.1 µM): 106%
residual activity ([36]; compound 1.0 µM): 70%
SMILES: Cc1cccc(-c2nn(C(=S)Nc3ccccc3)cc2-c2ccnc3ccccc23)n1

residual activity ([1]; compound 0.1 µM): 85%
residual activity ([1]; compound 1.0 µM): 90%
residual activity ([1]; compound 10.0 µM): 86%
residual activity ([2]; compound 0.1 µM): 100%
residual activity ([2]; compound 1.0 µM): 102%
residual activity ([2]; compound 10.0 µM): 93%
residual activity ([3]; compound 0.1 µM): 97%
residual activity ([3]; compound 1.0 µM): 81%
residual activity ([3]; compound 10.0 µM): 90%
residual activity ([4]; compound 0.1 µM): 98%
residual activity ([4]; compound 1.0 µM): 79%
residual activity ([4]; compound 10.0 µM): 88%
residual activity ([5]; compound 0.1 µM): 96%
residual activity ([5]; compound 1.0 µM): 92%
residual activity ([5]; compound 10.0 µM): 86%
residual activity ([6]; compound 0.1 µM): 78%
residual activity ([6]; compound 1.0 µM): 87%
residual activity ([6]; compound 10.0 µM): 83%
residual activity ([7]; compound 0.1 µM): 106%
residual activity ([7]; compound 1.0 µM): 101%
residual activity ([7]; compound 10.0 µM): 89%
residual activity ([8]; compound 0.1 µM): 83%
residual activity ([8]; compound 1.0 µM): 91%
residual activity ([8]; compound 10.0 µM): 84%
residual activity ([9]; compound 0.1 µM): 104%
residual activity ([9]; compound 1.0 µM): 100%
residual activity ([9]; compound 10.0 µM): 86%
residual activity ([10]; compound 0.1 µM): 87%
residual activity ([10]; compound 1.0 µM): 86%
residual activity ([10]; compound 10.0 µM): 93%
residual activity ([11]; compound 0.1 µM): 107%
residual activity ([11]; compound 10.0 µM): 99%
residual activity ([12]; compound 0.1 µM): 99%
residual activity ([12]; compound 1.0 µM): 94%
residual activity ([12]; compound 10.0 µM): 100%
residual activity ([13]; compound 0.1 µM): 118%
residual activity ([13]; compound 1.0 µM): 98%
residual activity ([13]; compound 10.0 µM): 100%
residual activity ([14]; compound 0.1 µM): 106%
residual activity ([14]; compound 1.0 µM): 92%
residual activity ([14]; compound 10.0 µM): 84%
residual activity ([15]; compound 0.1 µM): 97%
residual activity ([15]; compound 1.0 µM): 102%
residual activity ([15]; compound 10.0 µM): 97%
residual activity ([16]; compound 0.1 µM): 102%
residual activity ([16]; compound 1.0 µM): 106%
residual activity ([16]; compound 10.0 µM): 109%
residual activity ([17]; compound 0.1 µM): 105%
residual activity ([17]; compound 1.0 µM): 108%
residual activity ([17]; compound 10.0 µM): 100%
residual activity ([18]; compound 0.1 µM): 93%
residual activity ([18]; compound 1.0 µM): 103%
residual activity ([18]; compound 10.0 µM): 98%
residual activity ([19]; compound 0.1 µM): 90%
residual activity ([19]; compound 1.0 µM): 99%
residual activity ([19]; compound 10.0 µM): 90%
residual activity ([20]; compound 0.1 µM): 101%
residual activity ([20]; compound 1.0 µM): 107%
residual activity ([20]; compound 10.0 µM): 105%
residual activity ([21]; compound 0.1 µM): 90%
residual activity ([21]; compound 1.0 µM): 89%
residual activity ([21]; compound 10.0 µM): 93%
residual activity ([22]; compound 0.1 µM): 107%
residual activity ([22]; compound 1.0 µM): 93%
residual activity ([22]; compound 10.0 µM): 111%
residual activity ([23]; compound 0.1 µM): 101%
residual activity ([23]; compound 1.0 µM): 92%
residual activity ([23]; compound 10.0 µM): 93%
residual activity ([24]; compound 0.1 µM): 116%
residual activity ([24]; compound 1.0 µM): 96%
residual activity ([24]; compound 10.0 µM): 108%
residual activity ([25]; compound 0.1 µM): 103%
residual activity ([25]; compound 1.0 µM): 110%
residual activity ([25]; compound 10.0 µM): 86%
residual activity ([26]; compound 0.1 µM): 105%
residual activity ([26]; compound 1.0 µM): 108%
residual activity ([26]; compound 10.0 µM): 101%
residual activity ([27]; compound 0.1 µM): 91%
residual activity ([27]; compound 1.0 µM): 91%
residual activity ([27]; compound 10.0 µM): 85%
residual activity ([28]; compound 0.1 µM): 99%
residual activity ([28]; compound 1.0 µM): 86%
residual activity ([28]; compound 10.0 µM): 76%
residual activity ([29]; compound 0.1 µM): 103%
residual activity ([29]; compound 1.0 µM): 109%
residual activity ([29]; compound 10.0 µM): 97%
residual activity ([30]; compound 0.1 µM): 104%
residual activity ([30]; compound 1.0 µM): 96%
residual activity ([30]; compound 10.0 µM): 94%
residual activity ([31]; compound 0.1 µM): 110%
residual activity ([31]; compound 1.0 µM): 106%
residual activity ([31]; compound 10.0 µM): 107%
residual activity ([32]; compound 0.1 µM): 106%
residual activity ([32]; compound 1.0 µM): 108%
residual activity ([32]; compound 10.0 µM): 92%
residual activity ([33]; compound 0.1 µM): 119%
residual activity ([33]; compound 1.0 µM): 95%
residual activity ([33]; compound 10.0 µM): 100%
residual activity ([34]; compound 0.1 µM): 105%
residual activity ([34]; compound 1.0 µM): 100%
residual activity ([34]; compound 10.0 µM): 111%
residual activity ([35]; compound 0.1 µM): 134%
residual activity ([35]; compound 1.0 µM): 105%
residual activity ([35]; compound 10.0 µM): 92%
residual activity ([36]; compound 0.1 µM): 123%
residual activity ([36]; compound 1.0 µM): 100%
residual activity ([36]; compound 10.0 µM): 109%
SMILES: CCCCCc1ccc(/C=C/[C@H](O)[C@@H](CO)NC)cc1
